Entries after “also recorded” stand apart in the source; their conditions may differ.
How the values were obtained:
[1] = tested on: P. falciparum parasite line, 3D7; assay: microbe, parasite or virus in culture; assay type: cell-based, Plasmodium falciparum; conditions: P. falciparum 3D7 blood-stages, 0.1% initial parasitemia
Description: FIG. 9 exemplifies a dose-dependent effect of CR-mimetic compounds on human P. falciparum blood-stages. Synchronized cultures were set at 0.1% initial parasitemia, treated with the various compounds and analysed by flow cytometry after SYBR Green labelling of parasite DNA at 72 hours or 96 hours post-treatment. Data (mean±sem) was […] to the untreated control on each experiment (3-5 independent experiments/compound). IC50 values were determined by GraphPad. Prism using non-linear regression variable slope (normalized) analysis. […] Data for rsv and SRT1720 was collected at 72 hours post-treatment, and 96 hours for all the other compounds.
Example 7. Dose-dependent effect of CR-mimetic compounds on human P. falciparum blood-stages. Synchronized cultures of the P. falciparum parasite line, 3D7, were set at 0.1% initial parasitemia, treated with the various compounds and analysed by flow cytometry after SYBR Green labelling of parasite DNA at 72 hours or 96 hours post-treatment. […] Data for rsv and SRT1720 were collected at 72 hours post-treatment, and 96 hours for all the other compounds.
P. falciparum 3D7 was continuously cultured in human erythrocytes at 4% hematocrit in RPMI 1640 supplemented with 0.5% Albumax II (Invitrogen), […] Hypoxanthine (Sigma) and 20 μg/ml Gentamicin (Invitrogen). Cultures were maintained at 37° C. in an atmosphere of 5% O2, 5% CO2, 90% N2, and synchronized by consecutive treatments of 5% Sorbitol (Sigma), for dose-response analysis, serial dilutions of the compounds were added to synchronized ring-stages of P. falciparum in 96-well plates. Initial parasitemia was set to 0.1% and hematocrit 2%. Parasite replication and reinvasion were assessed at the indicated time by flow cytometry based on fluorescent labelling of P. falciparum DNA. The SYBR Green I (Invitrogen) stained samples were analysed on a CyFlow® SL Blue or Accuri® BD flow cytometer and the data evaluated using FlowJo software (TreeStar) to determine the percentage of infected erythrocytes. IC50 values were calculated using GraphPad Prism.

P. berghei sporozoites [2] = assay: Relative parasitemia after P. berghei sporozoite (liver-stage) infection of mice; assay type: in vivo, C57BL/6 mice; conditions: 72 h.p.i., vs control
Description: Relative parasitemia in C57BL/6 mice that were infected with freshly dissected P. berghei sporozoites, and treated with salicylate or metformin, or maintained under control conditions. Salicylate (300 mg/Kg) was administered by i.p. injection once daily, starting one hour before infection, Metformin (500 mg/Kg) was provided in the drinking water for one week prior and during infection, (≥10 mice/group; each dot represents, one mouse). ***p<0.001; ****p<0.0001.
Parasitemia was determined by flow cytometry analysis (BD FACSCAlibur200 or BD LSRFortessa®) of one drop of tail blood in PBS from C57BL/6 mice that were infected with GFP-expressing P. berghei parasites, and maintained on either AL or CR diets. Analysis on FlowJo® followed. The number of acquired total events ranged from 100-200 thousand. […] The GFP-expressing parasites were detected in the FITC channel. False GFP positive ceils (erythrocyte's auto-fluorescence) were eliminated by plotting FITC against PE.
Relative parasitemia in C57BL/6 mice at 72 hours post infection (h.p.i) with freshly dissected P. berghei sporozoites, was determined by flow cytometry analysis (as described in Example 1) for mice treated with either salicylate or metformin, or maintained under control, untreated conditions. […]

P. berghei sporozoites [3] = assay: Survival of P. berghei sporozoite-infected mice; assay type: in vivo, C57BL/6 mice; conditions: 15-day period
Description: FIG. 6 exemplifies that treatment with AMPK agonists protects P. berghei infected mice from severe malaria, leading to improved survival, C57BL/6 mice were infected and treated as in FIG. 5 (≥10 mice/group; p<0.05).
Example 4. Improved survival of parasite-infected mice treated with AMPK agonists. To determine the effect of the AMPK activators, salicylate and metformin, on animal survival over a 15-day period following parasite infection, C57BL/6 mice were infected by i.d. injection of 5×10^3 P. berghei sporozoites. Salicylate (300 mg/Kg, Sigma No. 71945) was administered by i.p. injection once daily, starting one hour before infection. Metformin (500 mg/Kg. Sigma No D150959) was provided in the drinking water for one week prior to, and during, infection.

AMPKα (pAMPKα T172) = assay: Western blot of AMPK phosphorylation in liver homogenates; assay type: in vivo, C57BL/6 mice; conditions: non-infected mice, 1 hr after injection, vs vehicle
Description: Western blot analysis of liver homogenates from non-infected mice in AL and DR diets (top panel), and non-infected mice 1 hr after injection of salicylate or vehicle (bottom panel). Lane numbers 1-3 correlate to liver homogenates from individual mice. Representative blot probing with anti-phospho AMPKα (pAMPKα^T172), and -actin antibodies.
Example 2. […] Western blot analysis of AMPK phosphorylation in liver homogenates from non-infected C57BL/6 mice in AL end DR diets, and non-infected mice one hour after injection of salicylate or vehicle. Livers were homogenized in ice-cold lysis buffer (50 mM HEPES, 150 mM NaCl, 10 mM NaF, 1 mM Sodium pyrophosphate, 0.5 mM EDTA, 1 mM DTT, 1% triton, 1 mM Na3VO4, 250 mM Sucrose, protease inhibitor cocktail and phosphatase inhibitors). Total protein content in each homogenate was measured by Bradford Assay (Bio-Rad), according to manufacturer's instructions. 50 μg of total liver lysates were resolved on either 8% SDS-PAGE or Any kD™ Mini-PROTEAN® precast gels (Bio-Rad) and transferred to a nitrocellulose membrane using standard wet transfer with 1× Tris-Glycine buffer containing 20% methanol for 2 hr at 100 V constant or were transferred using iBlot® gel Transfer Stacks (ThermoFisher). […]
pAMPK was detected using rabbit anti-phospho-AMPKα T172 (mAb 40H9.1:1000, Cell Signaling Technology) (incubation for overnight at 4° C). […]

[4] = tested on: P. berghei wild-type (wt) and complemented Δkin (Δkin+kin) parasites; assay: In vitro schizont maturation, merozoites per segmented schizont (wild-type and complemented Δkin); assay type: cell-based, Plasmodium berghei; conditions: 625 μM, 24 h in vitro, medium with 25% fetal bovine serum
Description: (§1) FIG. 7A exemplifies microscopy analysis and quantification of the number of merozoites per segmented schizont in P. berghei wild-type (wt), Δkin and complemented Δkin (Δkin+kin) parasites. Blood-stage parasites were allowed to mature for 24 hours into schizonts in vitro with medium supplemented with AL and CR sera. KIN is the AMPK homologue in Plasmodium parasites. ****p<0.0001.
(§2) Example 5. The AMPK homologue, KIN, regulates the CR effect in Plasmodium parasites. P. berghei parasite wild-type respond to CR by decreasing the number of daughter merozoites on each cycle. […] The CR effect phenotype can be rescued by reintroducing the kin gene into Δkin parasite line.
(§3) P. berghei blood-stage parasites can be maintained in vitro for only one developmental cycle (20-24 h), in which ring forms develop into mature schizonts, without bursting. Infected blood was obtained from in vivo infections containing mainly ring-stage forms at 1-3% parasitemia. Parasites were cultured in RPMI1640 medium containing 25 mM HEPES, 0.05 mg/ml Gentamicin or Penicillin/Streptomycin (all Gibco/Invitrogen), in 96-well plates. […] Parasite development and the number of merozoites per schizont were then assessed using light microscopy and image (http://rsbweb.nih.gov/ij/). Only mature schizont (segmenters) with clearly separated merozoites were scored.

[5] = tested on: P. berghei Δkin parasites; assay: In vitro schizont maturation, merozoites per segmented schizont (Δkin); assay type: cell-based, Plasmodium berghei; conditions: 24 h in vitro, medium with 25% fetal bovine serum
Description: as §1, §2, §3

[6] = 300 mg/Kg i.p. once daily, starting one hour before infection

N#Cc1c(O)c2c(-c3ccc(-c4ccccc4O)cc3)csc2[nH]c1=O [A769662]
IC50 ([1]; 96 hours post-treatment): 71 µM

O=C(Nc1ccccc1-c1cn2c(CN3CCNCC3)csc2n1)c1cnc2ccccc2n1 [SRT1720]
IC50 ([1]; 72 hours post-treatment): 0.786 µM

CN(C)C(=N)N=C(N)N [metformin]
Relative parasitemia (liver-stage infection) (P. berghei sporozoites [2]; 500 mg/Kg in drinking water for one week prior and during infection): reduction of P. berghei liver-stage infection | IC50 ([1]; Plasmodium falciparum, 96 hours post-treatment): 868 µM | Survival rate (P. berghei sporozoites [3]; 500 mg/Kg in drinking water for one week prior to and during infection): significant increases in the survival rates

Oc1ccc(C=Cc2cc(O)cc(O)c2)cc1 [resveratrol]
IC50 ([1]; Plasmodium falciparum, 72 hours post-treatment): 32 µM

O=C(O)c1ccccc1O [salicylate]
Relative parasitemia (liver-stage infection) (P. berghei sporozoites [2]; [6]): reduction of P. berghei liver-stage infection | AMPK phosphorylation (pAMPKα T172) in liver (AMPKα (pAMPKα T172)): activation of AMPK | IC50 ([1]; 96 hours post-treatment): 1300 µM | Parasite replication (merozoites per schizont) [4]: reduced parasite replication; also recorded: reduce replication | Parasite replication (merozoites per schizont) [5]: fail to respond | Survival rate (P. berghei sporozoites [3]; [6]): significant increases in the survival rates
